Reference: patent US20100105864A1, “PROPHYLACTIC OR THERAPEUTIC AGENT FOR DIARRHEA” (priority 2007, published 2010)
Marks after values point to notes of the source that are not given here.

Experiments:
[1] = system: Balb/c mice; assay: Anticancer agent (5-FU)-induced diarrhea model; assay type: in vivo
Experimental: To each of Balb/c mice, an anticancer agent was administered to induce diarrhea, and γ-Glu-Val-Gly (hereinafter, referred to as “γEVG”) was studied for its inhibitory effect on diarrhea. To each of 6-week-old Balb/c mice fed with a low protein nutrient diet (4% casein diet) for 1 week, 5-FU (1 mg/animal/day) was intraperitoneally administered for consecutive 3 days. The diarrhea developed around Day 5 after the third administration of the anticancer agent, and the diarrhea appeared in all cases on Day 7. The presence or absence of diarrhea was determined based on the presence or absence of the stool in the tail head area. As the statistical test, a chi-square (χ^2) test for the control group (presence or absence of diarrhea) was employed, and p<0.05 was regarded as significant.
Each administration of 0.01% γEVG was started in free water intake at the same time as the first administration of the anticancer agent, and continued until completion of the experiment.
To each of Balb/c mice, an anticancer agent was administered to induce diarrhea, and a calcium receptor activator (hereinafter, referred to as “CaSR agonist”) was studied for its inhibitory effect on diarrhea. To each of 6-week-old Balb/c mice fed with a low protein nutrient diet (4% casein diet) for 1 week, 5-FU (1 mg/animal/day) was intraperitoneally administered for consecutive 3 days. The diarrhea developed around Day 5 after the third administration of the anticancer agent, and the diarrhea appeared in all cases on Day 7. The presence or absence of diarrhea was determined based on the presence or absence of the stool in the tail head area. As the statistical test, a chi-square (χ^2) test for the control group (presence or absence of diarrhea) was employed, and p<0.05 was regarded as significant.
The administration of the CaSR agonist was started in free water intake at the same time as the administration of the low protein nutrient diet, and continued until completion of the experiment.

[2] = system: rat large intestine loop; assay: Fluid absorption in rat large intestine loop method (PGE2-stimulated); assay type: in vivo, rats; settings: injected into loop 30 minutes after PGE2 i.p.; measured after 1 hour
Experimental: The cecum and large intestine were extirpated from the abdomen of each of male SD (IGS) rats under pentobarbital anesthesia, and the site 5 cm away from the area just under the cecum was ligated to form a large intestine loop Immediately after the loop had been formed, PGE2 (4 μg/ml/kg, SIGMA) was intraperitoneally administered, and after 30 minutes, a medicament, which had been dissolved in 2 ml of Tyrode's solution (NaCl: 136.9 mM, KCl: 2.7 mM, CaCl2.2H2O: 1.8 mM, MgCl2.6H2O: 1.04 mM, NaH2PO4.2H2O: 0.04 mM, NaH2PO4.2H2O: 0.04 mM, glucose: 5.55 mM, NaHCO3: 11.9 mM), was injected into the prepared loop (the medicament solution was adjusted so that the pH would be 6.5 to 7.5). As a control, Tyrode's solution free of any medicament (vehicle) was administered. After 1 hour, the loop weight, the loop weight after solution removal, and the loop area were measured to calculate a solution weight per unit area remaining in the loop.
The remaining solution amount per unit area was calculated with the following equation:
Remaining solution amount per unit area(g/cm^2)=(Loop weight−Loop weight after solution removal)/Loop area.
The fluid absorption was evaluated by calculating an inhibitory rate from the following equation:
Inhibitory rate(%)=100−(Remaining solution amount per unit area under drug administration−Remaining solution amount per unit area in base(average))/(Remaining solution amount per unit area under vehicle administration(average)−Remaining solution amount per unit area in base(average))×100.
(Base=case where no stimulation is given (no treatment with PGE2))

SMILES: C[C@@H](NCCCc1cccc(C(F)(F)F)c1)c1cccc2ccccc12 [cinacalcet, (R)—N-(3-(3-(trifluoromethyl)phenyl)propyl)-1-(1-naphthyl)ethylamine]
- mice that did not exhibit the diarrhea symptom ([1]; 0.05% administration group, free water intake from start of low protein diet, control all 9/9 with diarrhea): 2 out of 5
- Ratio of individuals that developed diarrhea ([1]; 0.5% in free water intake from start of low protein diet, control 9/9, p < 0.05 chi-square): 3/5*
- fluid absorption (inhibitory rate from remaining solution amount per unit area) [2]: promoted fluid absorption
